Target: 5'-AMP-activated protein kinase catalytic subunit alpha-2 (Homo sapiens, UniProt P54646)
Assay: Enzyme-Linked Immunosorbent Assay: Compounds were assayed for their ability to activate AMPK using an enzyme-linked immunosorbent assay. Reagents and procedures for measuring AMPK activation are well known and kits for AMPK activation assays are commercially available.

Chain of 5'-AMP-activated protein kinase catalytic subunit alpha-2 (P54646 whole entry): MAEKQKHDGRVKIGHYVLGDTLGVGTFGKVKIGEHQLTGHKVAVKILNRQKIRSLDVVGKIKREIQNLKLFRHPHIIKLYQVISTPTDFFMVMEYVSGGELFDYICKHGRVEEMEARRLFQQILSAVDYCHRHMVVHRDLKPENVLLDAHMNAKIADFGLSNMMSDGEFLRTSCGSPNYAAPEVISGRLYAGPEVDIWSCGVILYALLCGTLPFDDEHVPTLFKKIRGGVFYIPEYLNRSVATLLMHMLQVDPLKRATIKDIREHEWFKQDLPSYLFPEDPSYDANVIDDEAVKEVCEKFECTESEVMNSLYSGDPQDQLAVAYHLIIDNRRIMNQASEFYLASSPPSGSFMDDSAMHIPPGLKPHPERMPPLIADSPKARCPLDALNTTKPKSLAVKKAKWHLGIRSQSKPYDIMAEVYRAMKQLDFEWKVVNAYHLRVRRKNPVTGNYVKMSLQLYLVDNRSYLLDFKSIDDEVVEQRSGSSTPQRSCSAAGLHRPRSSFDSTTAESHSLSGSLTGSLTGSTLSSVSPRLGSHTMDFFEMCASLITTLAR

EC50 [µM]	SMILES
> 10	O=C(Nc1ccccc1-c1ccccc1)c1ccc(C(=O)N2CCN(Cc3ccc(F)cc3)CC2)cn1
> 10	O=C(Nc1ccc(-c2ccc([N+](=O)[O-])cc2)cc1)c1ccc(C(=O)N2CCN(Cc3ccc(F)cc3)CC2)cn1

Source: ChEMBL document CHEMBL5726250, “AMPK-activating heterocyclic compounds and methods for using the same” (2017)
